# Patent EP2588472B1, “RUPATADINE derivative AS AN ANTIHISTAMINIC AGENT” (J. Uriach y Compania S.A., priority 2010, dated 2012)
# What was measured:
# human H1 receptor = target: T1, human H1 receptor (Homo sapiens, UniProt P35367); assay: standard H1 binding assay ([3H]-pyrilamine displacement, scintillation counting); conditions: recombinant HEK-293 derived membranes, [3H]-pyrilamine 1 nM, 22°C, 60 minutes
# T1 construct: expressed in transfected cells; host or cells: HEK-293 (membranes)
# Method: The antiH1 activity of Compound II was assayed using a standard H1 binding assay. The test was performed following a protocol based on Smit et al. (Brit. J. Pharmacol. 1996 117(6), 1071-1080): the binding was performed on recombinant HEK-293 cells expressing the human H1 receptor. The reference compound was [^3H]-pyrilamine at 1 nM. Recombinant HEK-293 derived membranes were incubated at 22°C for 60 minutes with [^3H]-pyrilamine in the presence of different concentrations of compound II. Measurements were carried out using scintillation counting.
# solubility in water = format: physicochemical
# [1] = stated in background; cited from earlier work
# T1 sequence (P35367 whole entry): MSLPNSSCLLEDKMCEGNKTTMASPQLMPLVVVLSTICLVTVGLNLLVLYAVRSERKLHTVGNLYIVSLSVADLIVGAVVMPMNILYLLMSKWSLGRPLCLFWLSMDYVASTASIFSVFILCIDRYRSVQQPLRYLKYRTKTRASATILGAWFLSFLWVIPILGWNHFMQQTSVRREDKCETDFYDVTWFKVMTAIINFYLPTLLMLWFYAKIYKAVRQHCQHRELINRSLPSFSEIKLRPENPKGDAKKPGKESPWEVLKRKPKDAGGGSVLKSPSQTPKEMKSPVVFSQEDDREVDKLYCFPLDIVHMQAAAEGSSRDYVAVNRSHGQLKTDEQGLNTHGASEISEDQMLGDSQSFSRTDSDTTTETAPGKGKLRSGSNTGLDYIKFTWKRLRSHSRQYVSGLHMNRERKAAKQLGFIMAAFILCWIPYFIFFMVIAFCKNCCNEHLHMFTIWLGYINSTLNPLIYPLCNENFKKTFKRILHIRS
IC50 (human H1 receptor),solubility (solubility in water),Compound,solubility in water [1]
370 nM,> 50 mg/mL,Cc1cc(CN2CCC(=C3c4ccc(Cl)cc4CCc4cccnc43)CC2)c[n+](C(CC(=O)O)C(=O)[O-])c1 (stereo not drawn) [Compound II],
,,Rupatadine fumarate,2.9 mg/mL
